How the values were obtained:
Settings in all cases: incubation time: 72 h
[1] = test system: CAL-85-1; test: normalised viability (% of control), CellTiter-Blue; higher = more viable cells (100 = DMSO, 0 = benzethonium chloride kill control)
How it was run: (§1)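 Normalised viability is given for a single listed concentration of the series. In 384-well plates, breast cancer cell lines were incubated 72 h with compound, then read with CellTiter-Blue (2 h, 37 °C) at 560/590 nm. Per-plate scaling set vehicle to 100 and a positive kill control to 0, with Z'-factor quality control.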

[2] = test system: SK-BR-3; test: as above
How it was run: as §1

[3] = test system: DU-4475; test: as above
How it was run: as §1

[4] = test system: MDA-MB-231; test: as above
How it was run: as §1

[5] = test system: Hs578T; test: as above
How it was run: as §1

[6] = test system: MDA-MB-453; test: as above
How it was run: as §1

[7] = test system: HCC1937; test: as above
How it was run: as §1

[8] = test system: BT-474; test: as above
How it was run: as §1

[9] = test system: MFM-223; test: as above
How it was run: as §1

[10] = test system: HCC1143; test: as above
How it was run: as §1

[11] = test system: CAL-148; test: as above
How it was run: as §1

[12] = test system: HDQ-P1; test: as above
How it was run: as §1

[13] = test system: CAL-120; test: as above
How it was run: as §1

[14] = test system: BT-549; test: as above
How it was run: as §1

[15] = test system: MDA-MB-436; test: as above
How it was run: as §1

[16] = test system: MDA-MB-468; test: as above
How it was run: as §1

[17] = test system: CAL-51; test: as above
How it was run: as §1

[18] = test system: HCC1599; test: as above
How it was run: as §1

[19] = test system: MCF-10A; test: normalised response (% of control), CellTiter-Glo; higher = more viable cells (100 = DMSO, 0 = benzethonium chloride kill control)
How it was run: (§2)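 For each plate, 0.1 % DMSO was set to 100 and a positive kill control to 0. Breast cancer cell lines (20 µl suspension) were seeded into 384-well plates already holding compound at 5 concentrations in 10-fold steps over a 10,000-fold range chosen per compound, and incubated for 72 h. CellTox Green fluorescence at 485/520 nm was read before CellTiter-Glo luminescence, which followed 10 min at room temperature. Each value is the normalised signal at one concentration.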

[20] = test system: CAL-85-1; test: as above
How it was run: as §2

[21] = test system: SK-BR-3; test: as above
How it was run: as §2

[22] = test system: DU-4475; test: as above
How it was run: as §2

[23] = test system: MDA-MB-231; test: as above
How it was run: as §2

[24] = test system: Hs578T; test: as above
How it was run: as §2

[25] = test system: MDA-MB-453; test: as above
How it was run: as §2

[26] = test system: HCC1937; test: as above
How it was run: as §2

[27] = test system: BT-474; test: as above
How it was run: as §2

[28] = test system: MFM-223; test: as above
How it was run: as §2

[29] = test system: HCC1143; test: as above
How it was run: as §2

[30] = test system: CAL-148; test: as above
How it was run: as §2

[31] = test system: HDQ-P1; test: as above
How it was run: as §2

[32] = test system: CAL-120; test: as above
How it was run: as §2

[33] = test system: BT-549; test: as above
How it was run: as §2

[34] = test system: MDA-MB-436; test: as above
How it was run: as §2

[35] = test system: MDA-MB-468; test: as above
How it was run: as §2

[36] = test system: CAL-51; test: as above
How it was run: as §2

[37] = test system: HCC1599; test: as above
How it was run: as §2

`C=CCNC1=C2C[C@@H](C)C[C@H](OC)[C@H](O)[C@@H](C)/C=C(\C)[C@H](OC(N)=O)[C@@H](OC)/C=C\C=C(/C)C(=O)NC(=CC1=O)C2=O` [Tanespimycin] (1 nM) gave a normalised viability [1] of 92.6%, a normalised viability [2] of 93% and a normalised viability [3] of 118%. For the same compound, the normalised viability [4] was 98.2%, the normalised viability [5] was 101% and the normalised viability [6] was 108%. It also gave a normalised viability [7] of 86.4%, a normalised viability [8] of 97.3% and a normalised viability [9] of 90.8%. The normalised viability [10] was 87.4%, the normalised viability [11] was 115% and the normalised viability [12] was 105%. The normalised viability [13] was 77.1%, the normalised viability [14] was 113% and the normalised viability [15] was 110%. It also gave a normalised viability [16] of 103%, a normalised viability [17] of 115% and a normalised viability [18] of 94.7%. The normalised response [19] was 99.1%, the normalised response [20] was 107% and the normalised response [21] was 96.8%. The normalised response [22] was 99%, the normalised response [23] was 98.9% and the normalised response [24] was 104%. The normalised response [25] was 104%, the normalised response [26] was 94.7% and the normalised response [27] was 91.9%. It also gave a normalised response [28] of 94%, a normalised response [29] of 95.8% and a normalised response [30] of 92.6%. For the same compound, the normalised response [31] was 99.4%, the normalised response [32] was 92.5% and the normalised response [33] was 105%. It also gave a normalised response [34] of 86.8%, a normalised response [35] of 107% and a normalised response [36] of 104%. The normalised response [37] was 102%.
For `C[C@]1(c2nc3c(C(N)=O)cccc3[nH]2)CCCN1` [Veliparib] (1 nM), the normalised viability [1] was 78.4%, the normalised viability [2] was 96.9% and the normalised viability [3] was 99%. For the same compound, the normalised viability [4] was 94.3%, the normalised viability [5] was 94.8% and the normalised viability [6] was 93.3%. The normalised viability [7] was 77.1%, the normalised viability [8] was 89.8% and the normalised viability [9] was 94.1%. For the same compound, the normalised viability [10] was 79.1%, the normalised viability [11] was 101% and the normalised viability [12] was 75.1%. It also gave a normalised viability [13] of 68.6%, a normalised viability [14] of 112% and a normalised viability [15] of 93.7%. For the same compound, the normalised viability [16] was 97.7%, the normalised viability [17] was 112% and the normalised viability [18] was 83.5%. For the same compound, the normalised response [19] was 97%, the normalised response [20] was 111% and the normalised response [21] was 102%. For the same compound, the normalised response [22] was 106%, the normalised response [23] was 102% and the normalised response [24] was 101%. The normalised response [25] was 109%, the normalised response [26] was 96.8% and the normalised response [27] was 107%. For the same compound, the normalised response [28] was 101%, the normalised response [29] was 101% and the normalised response [30] was 103%. The normalised response [31] was 101%, the normalised response [32] was 97.3% and the normalised response [33] was 104%. It also gave a normalised response [34] of 91.4%, a normalised response [35] of 111% and a normalised response [36] of 92.2%. For the same compound, the normalised response [37] was 96.4%.
`CC[C@]1(O)C[C@@H]2CN(CCc3c([nH]c4ccccc34)[C@@](C(=O)OC)(c3cc4c(cc3OC)N(C)[C@H]3[C@@](O)(C(=O)OC)[C@H](OC(C)=O)[C@]5(CC)C=CCN6CC[C@]43[C@@H]65)C2)C1` [Vinblastine] (0.1 nM) was tested, and the normalised viability [1] was 85.8%, the normalised viability [2] was 85.8% and the normalised viability [3] was 104%. The normalised viability [4] was 83.1%, the normalised viability [5] was 103% and the normalised viability [6] was 98.5%. For the same compound, the normalised viability [7] was 97.1%, the normalised viability [8] was 87.9% and the normalised viability [9] was 90%. The normalised viability [10] was 78.6%, the normalised viability [11] was 92.5% and the normalised viability [12] was 102%. It also gave a normalised viability [13] of 82.1%, a normalised viability [14] of 96.6% and a normalised viability [15] of 103%. It also gave a normalised viability [16] of 98.8%, a normalised viability [17] of 114% and a normalised viability [18] of 90.7%. It also gave a normalised response [19] of 101%, a normalised response [20] of 97.4% and a normalised response [21] of 100%. It also gave a normalised response [22] of 101%, a normalised response [23] of 94.9% and a normalised response [24] of 99.5%. It also gave a normalised response [25] of 103%, a normalised response [26] of 93.9% and a normalised response [27] of 96.2%. The normalised response [28] was 93.1%, the normalised response [29] was 99% and the normalised response [30] was 96.6%. The normalised response [31] was 99.4%, the normalised response [32] was 95.9% and the normalised response [33] was 102%. For the same compound, the normalised response [34] was 95.8%, the normalised response [35] was 98.8% and the normalised response [36] was 103%. For the same compound, the normalised response [37] was 106%.
`CS(=O)(=O)c1ccc(C(=O)Nc2ccc(Cl)c(-c3ccccn3)c2)c(Cl)c1` [Vismodegib] (1 nM) showed a normalised viability [1] of 104%, a normalised viability [2] of 93.7% and a normalised viability [3] of 103%. For the same compound, the normalised viability [4] was 100%, the normalised viability [5] was 115% and the normalised viability [6] was 103%. For the same compound, the normalised viability [7] was 103%, the normalised viability [8] was 103% and the normalised viability [9] was 96%. For the same compound, the normalised viability [10] was 94.9%, the normalised viability [11] was 94.9% and the normalised viability [12] was 75.3%. The normalised viability [13] was 86.2%, the normalised viability [14] was 88.3% and the normalised viability [15] was 94.2%. For the same compound, the normalised viability [16] was 99.6%, the normalised viability [17] was 108% and the normalised viability [18] was 105%. For the same compound, the normalised response [19] was 94%, the normalised response [20] was 99.2% and the normalised response [21] was 91.6%. It also gave a normalised response [22] of 98.9%, a normalised response [23] of 95.5% and a normalised response [24] of 95.9%. The normalised response [25] was 89.3%, the normalised response [26] was 92.3% and the normalised response [27] was 90.9%. It also gave a normalised response [28] of 86.8%, a normalised response [29] of 94.3% and a normalised response [30] of 103%. For the same compound, the normalised response [31] was 96.7%, the normalised response [32] was 92.8% and the normalised response [33] was 93.1%. The normalised response [34] was 100%, the normalised response [35] was 98.7% and the normalised response [36] was 120%. For the same compound, the normalised response [37] was 101%.

Source: the supplement of paper PMC4862054
